Results from publication PMC11062507.
Values belong to the molecule of their own block, whether it stands above or below them.

Assays:
[1] = system: CArah1-1 (DNA, aptamer, circular (5' and 3' ends ligated)) ATCCGATCGAGAGGATCCGGAAACATGCGAATTAATGAGGCCCCAAGATAGCTAAGAGAT; experiment: MMC-GO-based binding assay, SYBR Gold fluorescence; conditions: 1x binding buffer (composition not stated); specificity test, concentration not given
Ara h1 (peanut allergen) [2] = molecular target: T1, Ara h1 (peanut allergen) (peanut, UniProt P43238 85-626); experiment: MMC-GO-based fluorescence binding assay; Kd only in figure; 1x binding buffer (composition not in material); aptamer heated 95 C 5 min, ice 15 min, incubated 60 min with target, then MMC-GO 20 min; MST at 25 C; conditions: protein: native; tags: RED-NHS dye label in MST; label: SYBR Gold staining; circular ssDNA
T1 sequence: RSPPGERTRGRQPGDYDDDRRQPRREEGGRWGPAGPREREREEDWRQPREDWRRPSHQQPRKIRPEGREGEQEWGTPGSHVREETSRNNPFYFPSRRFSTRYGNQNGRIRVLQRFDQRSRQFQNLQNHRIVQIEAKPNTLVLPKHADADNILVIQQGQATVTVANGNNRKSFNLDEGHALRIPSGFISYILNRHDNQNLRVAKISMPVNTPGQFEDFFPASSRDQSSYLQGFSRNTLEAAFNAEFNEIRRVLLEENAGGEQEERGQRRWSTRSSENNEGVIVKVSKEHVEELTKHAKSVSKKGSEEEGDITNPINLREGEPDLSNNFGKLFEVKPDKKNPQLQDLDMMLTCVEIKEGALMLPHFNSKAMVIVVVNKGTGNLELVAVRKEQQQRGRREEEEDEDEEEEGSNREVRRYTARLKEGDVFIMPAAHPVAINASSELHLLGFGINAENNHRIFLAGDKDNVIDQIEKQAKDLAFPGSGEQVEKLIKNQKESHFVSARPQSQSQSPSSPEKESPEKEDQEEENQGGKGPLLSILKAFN

Ara h1 (peanut allergen) [3] = molecular target: T1, Ara h1 (peanut allergen); experiment: MMC-GO-based fluorescence binding assay; 1x binding buffer (composition not in material); aptamer heated 95 C 5 min, ice 15 min, incubated 60 min with target, then MMC-GO 20 min; MST at 25 C; conditions: protein: native; tags: RED-NHS dye label in MST; label: SYBR Gold staining in MMC-GO assay; circular ssDNA
Ara h1 (peanut allergen) [4] = molecular target: T1, Ara h1 (peanut allergen); experiment: MST; labeled Ara h1 fixed, aptamer titrated, 25 C; 1x binding buffer (composition not in material); aptamer heated 95 C 5 min, ice 15 min, incubated 60 min with target, then MMC-GO 20 min; MST at 25 C; conditions: protein: native; tags: RED-NHS dye label in MST; label: SYBR Gold staining in MMC-GO assay; circular ssDNA

binding [1]: no
Molecule: N[C@@H](Cc1ccccc1)C(=O)O

binding [1]: no
Molecule: O=C1O[C@H]([C@@H](O)CO)C(O)=C1O

binding [1]: no
Molecule: Cc1cc2nc3c(=O)[nH]c(=O)nc-3n(C[C@H](O)[C@H](O)[C@H](O)CO)c2cc1C

binding [1]: no
Molecule: OC[C@H]1OC(O)[C@H](O)[C@@H](O)[C@@H]1O (stereo partly shown)

binding [1]: no
Molecule: N[C@@H](Cc1c[nH]c2ccccc12)C(=O)O

binding [1]: no
Molecule: Nc1ncnc2c1ncn2[C@@H]1O[C@H](COP(=O)(O)OP(=O)(O)OP(=O)(O)O)[C@@H](O)[C@H]1O

B1: CArah1-3 (structured_DNA)
DNA: ATCCGATCGATTCTACGGTTTTTCGCTAACGTTCACTGCACTGTATCTGGGCTAAGAGAT
modifications: circular (5' and 3' ends ligated)
binding result (Ara h1 (peanut allergen) [2]): binds

B2: CArah1-4 (structured_DNA)
DNA: ATCCGATCGATCAACAAACTTCGTGGCTCACCCAGACATTCACTCATGCGGCTAAGAGAT
modifications: circular (5' and 3' ends ligated)
binding result (Ara h1 (peanut allergen) [2]): binds

B3: CArah1-1 (structured_DNA)
DNA: ATCCGATCGAGAGGATCCGGAAACATGCGAATTAATGAGGCCCCAAGATAGCTAAGAGAT
modifications: circular (5' and 3' ends ligated)
Kd (Ara h1 (peanut allergen) [3]): 981 nM | Kd (Ara h1 (peanut allergen) [4]): 201 nM
